Assay results published in PubChem BioAssay AID256 (DTP/NCI, 2004).
Inconclusive results and toxic doses are left out. The calls were made as follows: active = survival T/C of 150% or more; inactive = T/C below 125% in these data.

System: CD2F1 mice, L1210 leukemia ip, survival T/C
Experiment: NCI In Vivo Anticancer Drug Screen. Data for tumor model L1210 Leukemia (intraperitoneal) in CD2F1 (CDF1) mice
Conditions: higher = longer survival
Method in brief: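 Transplantable tumor in mice; compound-treated vs vehicle-treated groups. Read-out = treated/control ratio of the measured endpoint.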

[1] = endpoint: mean survival time, dose: 50.0 mg/kg/injection, schedule: Q01DX009 (ip), vehicle: saline with Tween-80
[2] = endpoint: mean survival time, dose: 100.0 mg/kg/injection, schedule: Q01DX009 (ip), vehicle: saline with Tween-80
[3] = endpoint: mean survival time, dose: 200.0 mg/kg/injection, schedule: Q01DX009 (ip), vehicle: saline with Tween-80
[4] = endpoint: mean survival time, dose: 100.0 mg/kg/injection, schedule: Q04DX003 (ip), vehicle: saline with Tween-80
[5] = endpoint: mean survival time, dose: 200.0 mg/kg/injection, schedule: Q04DX003 (ip), vehicle: saline with Tween-80
[6] = endpoint: mean survival time, dose: 400.0 mg/kg/injection, schedule: Q04DX003 (ip), vehicle: saline with Tween-80
[7] = endpoint: mean survival time, dose: 400.0 mg/kg/injection, schedule: Q01DX009 (ip), vehicle: saline with Tween-80
[8] = endpoint: mean survival time, dose: 25.0 mg/kg/injection, schedule: Q01DX009 (ip), vehicle: Klucel (hydroxypropylcellulose) (HPC)
[9] = endpoint: mean survival time, dose: 75.0 mg/kg/injection, schedule: Q01DX001 (ip), vehicle: saline

Measured: T/C

O=C1OC(=O)C2C1OC1C(=O)OC(=O)C12 (stereo unspecified)
inactive: endpoint: mean survival time, dose: 6.25 mg/kg/injection, schedule: Q04DX002 (ip), vehicle: saline 103 % of control | endpoint: mean survival time, dose: 12.5 mg/kg/injection, schedule: Q04DX002 (ip), vehicle: saline 106 % of control | endpoint: mean survival time, dose: 25.0 mg/kg/injection, schedule: Q04DX002 (ip), vehicle: saline 95 % of control

O=C(O)C1C(C(=O)O)C(C(=O)O)C1C(=O)O (stereo unspecified)
inactive: [1] 109 % of control | [2] 95 % of control | [3] 108 % of control

CCOCC(C(=O)OCC)C(=O)OCC
inactive: [4] 104 % of control | [5] 102 % of control | [6] 104 % of control

CC1(C)C/C(=C\c2cc(O)ccc2[N+](=O)[O-])C(=O)c2ccccc21
inactive: [2] 97 % of control | [4] 101 % of control | [3] 94 % of control | [5] 106 % of control | [7] 97 % of control | [6] 103 % of control

C/C(=N\NC(N)=O)C(F)(F)F
inactive: [1] 101 % of control | [2] 102 % of control | [4] 97 % of control | [3] 102 % of control | [5] 108 % of control

O=c1[nH]cnc2n[nH]nc12
inactive: endpoint: mean survival time, dose: 12.5 mg/kg/injection, schedule: Q01DX009 (ip), vehicle: Klucel (hydroxypropylcellulose) (HPC) 116 % of control | [8] 119 % of control | endpoint: mean survival time, dose: 75.0 mg/kg/injection, schedule: Q01DX001 (ip), vehicle: other 103 % of control | endpoint: mean survival time, dose: 150.0 mg/kg/injection, schedule: Q01DX001 (ip), vehicle: other 108 % of control | endpoint: mean survival time, dose: 300.0 mg/kg/injection, schedule: Q01DX001 (ip), vehicle: other 108 % of control

CNc1nc(N)nc(CN2CCOCC2c2ccccn2)n1 (stereo unspecified)
inactive: endpoint: mean survival time, dose: 100.0 mg/kg/injection, schedule: Q04DX002 (ip), vehicle: saline 88 % of control | endpoint: mean survival time, dose: 200.0 mg/kg/injection, schedule: Q04DX002 (ip), vehicle: saline 114 % of control | endpoint: mean survival time, dose: 400.0 mg/kg/injection, schedule: Q04DX002 (ip), vehicle: saline 96 % of control

O=C1CC=C2C3CC4N(CCC45c4cc(O)c(O)cc4N1C25)C/C3=C\CBr (stereo unspecified)
inactive: [9] 115 % of control

O=C(/C=C/C(=N\Nc1ccccc1)c1ccccc1)c1ccccc1
inactive: endpoint: mean survival time, dose: 100.0 mg/kg/injection, schedule: Q01DX001 (ip), vehicle: saline with Tween-80 96 % of control | endpoint: mean survival time, dose: 200.0 mg/kg/injection, schedule: Q01DX001 (ip), vehicle: saline with Tween-80 94 % of control | endpoint: mean survival time, dose: 400.0 mg/kg/injection, schedule: Q01DX001 (ip), vehicle: saline with Tween-80 97 % of control

CN(C)c1ccc(/C=C/c2ccnc3ccccc23)cc1
inactive: endpoint: mean survival time, dose: 12.5 mg/kg/injection, schedule: Q01DX Z (ip), vehicle: saline 103 % of control | endpoint: mean survival time, dose: 16.0 mg/kg/injection, schedule: Q01DX008 (iv), vehicle: saline 100 % of control | endpoint: mean survival time, dose: 25.0 mg/kg/injection, schedule: Q01DX Z (ip), vehicle: saline 103 % of control | endpoint: mean survival time, dose: 32.0 mg/kg/injection, schedule: Q01DX008 (iv), vehicle: saline 100 % of control | endpoint: mean survival time, dose: 50.0 mg/kg/injection, schedule: Q01DX Z (ip), vehicle: saline 103 % of control | endpoint: mean survival time, dose: 64.0 mg/kg/injection, schedule: Q01DX008 (iv), vehicle: saline 102 % of control

OC(c1ccccc1)(c1ccccc1)c1nc2ccccc2o1
inactive: [2] 107 % of control | [4] 96 % of control | [3] 100 % of control | [5] 91 % of control | [6] 95 % of control

OCC1C2C=CC1CC2 (stereo unspecified)
inactive: [4] 95 % of control | [5] 96 % of control | [6] 96 % of control

CC(C)(C)c1cc(C=C(C#N)C#N)cc(C(C)(C)C)c1O
inactive: endpoint: mean survival time, dose: 100.0 mg/kg/injection, schedule: Q01DX001 (ip), vehicle: Klucel (hydroxypropylcellulose) (HPC) 87 % of control | endpoint: mean survival time, dose: 200.0 mg/kg/injection, schedule: Q01DX001 (ip), vehicle: Klucel (hydroxypropylcellulose) (HPC) 102 % of control | endpoint: mean survival time, dose: 400.0 mg/kg/injection, schedule: Q01DX001 (ip), vehicle: Klucel (hydroxypropylcellulose) (HPC) 87 % of control

CC1(C)N=C(N)N=C(N)N1c1ccc(C(C#N)CCCc2ccccc2)cc1 (stereo unspecified)
inactive: [8] 97 % of control | endpoint: mean survival time, dose: 50.0 mg/kg/injection, schedule: Q01DX009 (ip), vehicle: Klucel (hydroxypropylcellulose) (HPC) 101 % of control | endpoint: mean survival time, dose: 100.0 mg/kg/injection, schedule: Q01DX009 (ip), vehicle: Klucel (hydroxypropylcellulose) (HPC) 91 % of control

NC(=O)C#CC(N)=O
inactive: endpoint: mean survival time, dose: 0.37 mg/kg/injection, schedule: Q01DX009 (ip), vehicle: saline 101 % of control | endpoint: mean survival time, dose: 0.75 mg/kg/injection, schedule: Q01DX009 (ip), vehicle: saline 103 % of control | endpoint: mean survival time, dose: 1.5 mg/kg/injection, schedule: Q01DX009 (ip), vehicle: saline 109 % of control | endpoint: mean survival time, dose: 3.0 mg/kg/injection, schedule: Q01DX009 (ip), vehicle: saline 122 % of control | [2] 95 % of control | [4] 108 % of control | [3] 98 % of control | [5] 92 % of control | [7] 108 % of control | [6] 89 % of control

O=C1c2ccccc2C(Cl)(c2ccc(Cl)cc2)c2ccc(Cl)cc21 (stereo unspecified)
inactive: endpoint: median survival time, dose: 25.0 mg/kg/injection, schedule: Q01DX009 (ip), vehicle: saline with Tween-80 111 % of control | endpoint: median survival time, dose: 50.0 mg/kg/injection, schedule: Q01DX009 (ip), vehicle: saline with Tween-80 112 % of control | endpoint: median survival time, dose: 100.0 mg/kg/injection, schedule: Q01DX009 (ip), vehicle: saline with Tween-80 111 % of control

c1cc2c3c(cccc3c1)/C(=C1/Cc3cccc4cccc1c34)C2
inactive: [2] 107 % of control | [4] 103 % of control | [3] 113 % of control | [5] 104 % of control | [7] 110 % of control | [6] 107 % of control

ON=C(CCl)CCl
inactive: endpoint: mean survival time, dose: 1.56 mg/kg/injection, schedule: Q01DX009 (ip), vehicle: saline 96 % of control | endpoint: mean survival time, dose: 3.12 mg/kg/injection, schedule: Q01DX009 (ip), vehicle: saline 96 % of control | endpoint: mean survival time, dose: 6.25 mg/kg/injection, schedule: Q01DX009 (ip), vehicle: saline 93 % of control

O=c1[nH]nc(OCc2ccccc2)c2ncn(Cc3ccccc3)c12
inactive: endpoint: mean survival time, dose: 12.5 mg/kg/injection, schedule: Q01DX005 (ip), vehicle: other 91 % of control | endpoint: mean survival time, dose: 100.0 mg/kg/injection, schedule: Q01DX005 (ip), vehicle: other 88 % of control | endpoint: mean survival time, dose: 200.0 mg/kg/injection, schedule: Q01DX005 (ip), vehicle: other 86 % of control

CC(C)c1ccccc1OS(=O)(=O)c1cccc([N+](=O)[O-])c1
inactive: [2] 98 % of control | [4] 100 % of control | [3] 100 % of control | [5] 99 % of control | [7] 100 % of control | [6] 106 % of control

C#CCOc1ccccc1O
inactive: endpoint: mean survival time, dose: 100.0 mg/kg/injection, schedule: Q04DX003 (ip), vehicle: acetone 101 % of control | endpoint: mean survival time, dose: 200.0 mg/kg/injection, schedule: Q04DX003 (ip), vehicle: acetone 103 % of control | endpoint: mean survival time, dose: 400.0 mg/kg/injection, schedule: Q04DX003 (ip), vehicle: acetone 95 % of control

CCCCCCCCCCC(Sc1n[nH]c(=O)[nH]c1=O)C(=O)OCC (stereo unspecified)
inactive: endpoint: mean survival time, dose: 12.5 mg/kg/injection, schedule: Q01DX005 (ip), vehicle: distilled water + Tween-80 97 % of control | endpoint: mean survival time, dose: 25.0 mg/kg/injection, schedule: Q01DX005 (ip), vehicle: distilled water + Tween-80 97 % of control | endpoint: mean survival time, dose: 50.0 mg/kg/injection, schedule: Q01DX005 (ip), vehicle: distilled water + Tween-80 95 % of control | endpoint: mean survival time, dose: 100.0 mg/kg/injection, schedule: Q01DX005 (ip), vehicle: distilled water + Tween-80 95 % of control | endpoint: mean survival time, dose: 200.0 mg/kg/injection, schedule: Q01DX005 (ip), vehicle: distilled water + Tween-80 97 % of control

CC(=O)Nc1ccccc1C(=O)C(=O)Nc1ccccc1C(=O)NN
inactive: [1] 95 % of control | [2] 91 % of control | [3] 87 % of control

NC(=O)C(CCCCC(C(N)=O)C(N)=O)C(N)=O
inactive: endpoint: mean survival time, dose: 100.0 mg/kg/injection, schedule: Q04DX002 (ip), vehicle: saline with Tween-80 96 % of control | endpoint: mean survival time, dose: 200.0 mg/kg/injection, schedule: Q04DX002 (ip), vehicle: saline with Tween-80 108 % of control | endpoint: mean survival time, dose: 400.0 mg/kg/injection, schedule: Q04DX002 (ip), vehicle: saline with Tween-80 108 % of control

CC(C)CC(C)NCCO (stereo unspecified)
inactive: [9] 98 % of control | endpoint: mean survival time, dose: 150.0 mg/kg/injection, schedule: Q01DX001 (ip), vehicle: saline 100 % of control

CC(C(=O)NN)C(O)C(C)(C)O (stereo unspecified)
inactive: [4] 96 % of control | [5] 96 % of control | [6] 103 % of control

CO[C@H]1[C@H](O)[C@H](O[C@H]2CC[C@@]3(C)[C@H](CC[C@@H]4[C@@H]3CC[C@]3(C)[C@@H](C5=CC(=O)OC5)CC[C@]43O)C2)O[C@@H](C)[C@@H]1O
inactive: endpoint: mean survival time, dose: 0.5 mg/kg/injection, schedule: Q01DX001 (ip), vehicle: saline 105 % of control | endpoint: mean survival time, dose: 1.0 mg/kg/injection, schedule: Q01DX001 (ip), vehicle: saline 105 % of control | endpoint: mean survival time, dose: 2.0 mg/kg/injection, schedule: Q01DX001 (ip), vehicle: saline 108 % of control | endpoint: mean survival time, dose: 4.0 mg/kg/injection, schedule: Q01DX001 (ip), vehicle: saline 109 % of control
